{"source": "patent US20090082258A1", "about": "“Means and Methods for Treating Advanced Stage Neuroblastoma” (priority 2005, published 2009)", "key": {"[1]": {"tested_on": "nuclear histone deacetylases", "assay": "Accumulation of acetylated histone H4 in SH-EP cells (Western blot)", "format": "cell-based", "details": "6 h, 15 mM HC-Toxin [sic]", "experimental": "The cells were treated for 6 hours with HC-toxin or the indicated histone deacetylase inhibitors as well as all-trans retinoic acid. Whole-cell extracts were obtained and subjected to Western-Blot analysis using an antibody, which specifically recognizes acetylated histone H4 (H4 Acetyl).\nSH-EP-neuroblastoma cells were treated with […] HC-Toxin for 6 h. Subsequently, accumulation of acetylated histone H4 was investigated."}, "[2]": {"tested_on": "SH-EP neuroblastoma cells", "assay": "Proliferation of SH-EP neuroblastoma cells", "format": "cell-based", "details": "10 to 20 nM", "experimental": "(§1) FIG. 2: Influence of HC-Toxin upon proliferation, cell cycle, and apoptosis of SH-EP neuroblastoma cells.\n(§2) 5×10*4 SH-EP neuroblastoma cells were cultured in RPMI 1640 medium (including 10% FBS, 1% Pen/Strep). After 24 hours of culture, the cells were treated up to 96 h with 10 to 20 nM HC-Toxin or, as solvent control, with methanol (MeOH) at 37° C., 5% CO2. The morphological changes of the cells were investigated using phase contrast microscopy. After 36 h of treatment, neurite outgrowth was observed. After 72 h of treatment, said neurite outgrowth reached its maximum and was constant if treatment was prolonged (not shown). […] More than 95% of the SH-EP neuroblastoma cells differentiate morphologically when treated with 15 nM HC-Toxin (see FIG. 1c).\n(§3) An increase in apoptotic cells from 5% to 20% was observed after 48 h to 72 h of HC-toxin treatment in a dose dependent manner (FIG. 2c)."}, "[3]": {"tested_on": "SH-EP neuroblastoma cells", "assay": "Cell cycle of SH-EP neuroblastoma cells", "format": "cell-based", "details": "15 nM vs control cells", "experimental": "as §1, §3"}, "[4]": {"tested_on": "primary skin fibroblasts", "assay": "Cell cycle of primary non-transformed skin fibroblasts", "format": "cell-based, human", "details": "15 nM vs methanol control", "experimental": "(§4) FIG. 3: Influence of HC-Toxin upon proliferation and cell cycle of primary non-transformed skin fibroblasts.\n(§5) In order to determine the effects of HC-Toxin on “normal” body cells, primary skin fibroblasts were treated under the same conditions."}, "[5]": {"tested_on": "SH-EP neuroblastoma cells", "assay": "Apoptosis of SH-EP neuroblastoma cells", "format": "cell-based", "details": "FIG. 2c", "experimental": "as §1, §3"}, "[6]": {"tested_on": "primary skin fibroblasts", "assay": "Proliferation of primary non-transformed skin fibroblasts", "format": "cell-based, human", "details": "10-20 nM, same conditions as SH-EP", "experimental": "as §4, §5"}, "[7]": {"tested_on": "MYCN stably transfected SH-EP-neuroblastoma cells (WAC2)", "assay": "Proliferation of MYCN stably transfected SH-EP neuroblastoma cells WAC2", "format": "cell-based", "details": "stronger inhibition than in SH-EP", "experimental": "(§6) FIG. 4: Influence of HC-Toxin upon the proliferation of MYCN amplified neuroblastoma cells and cells, which overexpress MYCN. (a) BE(2)-C neuroblastoma cells, (b) WAC2 neuroblastoma cells, and (c) Tet21N neuroblastoma cells.\n(§7) MYCN amplified neuroblastoma cells (Be(2)-C), MYCN stably transfected SH-EP-neuroblastoma cells (WAC2) as well as SH-EP cells having an tetracycline inducible MYCN (Tet21N) were treated by HC-Toxin."}, "[8]": {"tested_on": "MYCN amplified neuroblastoma cells (Be(2)-C)", "assay": "Proliferation of MYCN amplified neuroblastoma cells Be(2)-C", "format": "cell-based", "details": "stronger inhibition than in SH-EP", "experimental": "as §6, §7"}, "[9]": {"tested_on": "SH-EP neuroblastoma cells", "assay": "Neuronal differentiation of SH-EP neuroblastoma cells (phase contrast microscopy, immunocytochemistry)", "format": "cell-based", "experimental": "FIG. 1: HC-Toxin induces neuronal differentiation in SH-EP MYCN-single copy neuroblastoma cells. Cells with neurites longer than twice the diameter of the cell body have been deemed as differentiated cells.\nas §2"}, "[10]": {"tested_on": "SH-EP cells having an tetracycline inducible MYCN (Tet21N)", "assay": "Proliferation of SH-EP cells with tetracycline inducible MYCN (Tet21N)", "format": "cell-based", "details": "stronger inhibition than in SH-EP", "experimental": "as §6, §7"}, "[11]": {"tested_on": "various tumour cells", "details": "cited from earlier work"}, "[12]": {"tested_on": "various tumour cells", "assay": "Antitumoral effects in tumour cells, general statements and comparison with other agents", "format": "cell-based", "details": "higher concentration", "experimental": "The differentiation inducing agent all-trans retinoic acid has to be administered in a 1000-fold higher concentration compared to HC-toxin, acts differently as compared with compounds of the general formula (I) and causes side effects known as the retinoic acid syndrome.\nThe compounds having a structure as shown in the general formula (I) elicit the aforementioned antitumoral effects in an extremely low dosage already, i.e. at nanomolar concentrations (5-20 nM), in various tumour cells. The mode of action of the compounds apparently encompasses inhibition of histone deacetylases. This finding is supported by the observation that treatment of MYCN single copy and amplified neuroblastoma cells with a compound of the present invention in nanomolar concentration (e.g. 15 nM) leads to the accumulation of acetylated H4-histones within one to six hours being an indicator for a histone deacetylase inhibitor."}}, "note": "Entries after “also recorded” stand apart in the source; their conditions may differ.", "data": [{"smiles": "CC1NC(=O)C(C)NC(=O)C2CCCN2C(=O)C(CCCCCC(=O)C2CO2)NC1=O", "note": "(stereo not drawn) [HC-Toxin, Helminthosporium carbonum toxin]", "values": [{"measurement": "accumulation of acetylated histone H4", "setting": "[1]", "value": "induces hyperacetylation of histone H4"}, {"measurement": "accumulation of acetylated histone H4", "setting": "[1]; listed as iHC-Toxin", "value": "induce accumulation of acetylated histone H4"}, {"measurement": "inhibition of SH-EP neuroblastoma cell proliferation", "setting": "[2]", "value": "inhibits cell proliferation in a concentration dependent manner; also recorded: concentration-dependent inhibition"}, {"measurement": "cell cycle distribution of SH-EP cells", "setting": "[3]", "value": "accumulation of the HC-Toxin treated cells in the G0/1 phase"}, {"measurement": "cell cycle of primary skin fibroblasts", "setting": "[4]", "value": "does not alter the cell cycle; also recorded: No significant changes"}, {"measurement": "induction of apoptosis in SH-EP cells", "setting": "[5]", "value": "induces apoptosis in a concentration dependent manner"}, {"measurement": "proliferation of primary skin fibroblasts", "setting": "[6]", "value": "No significant changes"}, {"measurement": "proliferation of primary skin fibroblasts", "setting": "[6]; listed as HC-toxin", "value": "has no influence upon the proliferation"}, {"measurement": "inhibition of proliferation of WAC2 cells", "setting": "[7]", "value": "efficiently inhibits proliferation"}, {"measurement": "inhibition of proliferation of Be(2)-C cells", "setting": "[8]", "value": "efficiently inhibits proliferation"}, {"measurement": "SH-EP neuroblastoma cells that differentiate morphologically", "setting": "[9]; 15 nM HC-Toxin, neurites longer than twice the diameter of the cell body", "value": "More than 95%"}, {"measurement": "time of treatment after which neurite outgrowth reached its maximum", "setting": "[9]; 10 to 20 nM, SH-EP cells", "value": 72, "unit": "h"}, {"measurement": "time of treatment after which neurite outgrowth was observed", "setting": "[9]; 10 to 20 nM, SH-EP cells", "value": 36, "unit": "h"}, {"measurement": "inhibition of proliferation of Tet21N cells", "setting": "[10]", "value": "efficiently inhibits proliferation"}]}, {"smiles": "CCCC(CCC)C(=O)O", "note": "[valproic acid]", "values": [{"measurement": "efficient concentration", "setting": "[11]; not achievable in vivo", "value": "only efficient in millimolar concentrations"}]}, {"smiles": "CC(/C=C/C(=O)NO)=C\\[C@@H](C)C(=O)c1ccc(N(C)C)cc1", "note": "[trichostatin A]", "values": [{"measurement": "cytotoxic effects", "setting": "[11]", "value": "strong cytotoxic effects"}]}, {"smiles": "CC1=C(/C=C/C(C)=C/C=C/C(C)=C/C(=O)O)C(C)(C)CCC1", "note": "[all-trans retinoic acid, reference compound]", "values": [{"measurement": "accumulation of acetylated histone H4", "setting": "[1]", "value": "no induction of hyperacetylation of histone H4"}, {"measurement": "concentration to be administered compared to HC-toxin", "setting": "[12]", "value": 1000, "unit": "fold"}]}]}
